Values quoted from earlier work, collected in patent US20060051490A1, “Food component and processes for the preparation thereof” (priority 2003, published 2006).

Details: for solubility in 100 parts of water: in 100 parts of water at room temperature, approximate

Compound | miscibility with water | solubility in 100 parts of water [parts]
CC(O)C(=O)O (stereo not shown) [lactic acid] | miscible with water in all proportions | –
O=C(O)/C=C/C(=O)O [fumaric, fumaric acid] | – | ~1.5
O=C(O)CC(O)C(=O)O (stereo not shown) [malic, malic acid] | – | ~150
CC(=O)O [Acetic acid, acetic acid] | miscible with water in all proportions | –
